Here are results for three compounds from patent US20100055799A1, “TEST AGENT FOR DIAGNOSING DYSPEPSIA” (priority 2006, published 2010).

Data set [1] is described as follows: 2-13C uracil concentration in plasma of patients suspected of post-operative gastroparesis. The conditions noted are these: 20 minutes after oral 100 mg 2-13C uracil (Example 2 granules); patients with decreased or insufficient gastric-emptying function versus normal type. The class given is in vivo, human.
Data set [2] is classed as physicochemical.
Data set [3] relates to gastric-emptying function. In words: 13C breath test in delayed gastric-emptying model rats (propantheline pretreatment). The class given is in vivo, rat. The note with it: propantheline 1 mg/kg i.v. 5 min before 10 mg/kg oral 2-13C uracil; expired air 5-60 min. How it is done:
“Propantheline”, an anticholinergic agent, was intravenously administered to rats (female, Wister rat, 8 weeks old: n=3) in such an amount of 1 mg/kg to obtain model animals whose gastric-emptying function was decreased (a delayed gastric-emptying model). […] The expired air samples were collected over time, and the ^13CO2 concentration in each expired air sample was measured.

Where two headings read alike, the source gives them in different places.

For `O=c1cc[nH][13c](=O)[nH]1` [2-^13C uracil], the “2-13C uracil concentrations in plasma” value in data set [1] is reported as “lowered”. For the same compound, the Solubility in data set [2] (pH 2) is listed as 0.28 w/v %; in data set [2] (pH 4), 0.28 w/v %; in data set [2] (pH 6) it was 0.28 w/v %; in data set [2] (pH 8), 0.29 w/v %.
`O=c1cc[nH]c(=O)[nH]1` [uracil]: the “change of solubility depending on the pH of the solution” value in data set [2] (pH 2) was “almost unchanged”.
Turning to `CC(C)[N+](C)(CCOC(=O)C1c2ccccc2Oc2ccccc21)C(C)C` [propantheline, Propantheline], in data set [3], the “13CO2 concentration (Δ13C value) excreted in expired air versus normal rats” value is given as “significantly lower”.
